Laboratory results from patent publication US10118935B2, “Melampomagnolide B dimers” (priority 2014, dated 2018).

Tests used:
COLO 205 = test: NCI 60 cell line five dose, Colon Cancer
SK-MEL-28 = test: NCI 60 cell line five dose, Melanoma
HOP-92 = test: NCI 60 cell line five dose, Non-Small Cell Lung Cancer
KM12 = test: NCI 60 cell line five dose, Colon Cancer
M14 = test: NCI 60 cell line five dose, Melanoma
786-0 = test: NCI 60 cell line five dose, Renal Cancer
BT-549 = test: NCI 60 cell line five dose, Breast Cancer
OVCAR-5 = test: NCI 60 cell line five dose, Ovarian Cancer
OVCAR-3 = test: NCI 60 cell line five dose, Ovarian Cancer
OVCAR-8 = test: NCI 60 cell line five dose, Ovarian Cancer
SF-295 = test: NCI 60 cell line five dose, CNS Cancer
HCT-116 = test: NCI 60 cell line five dose, Colon Cancer

In the case of `C=C1C(=O)O[C@H]2[C@H]1CC/C(COC(=O)NCCCCNC(=O)OC/C1=C/CC[C@@]3(C)O[C@H]3[C@H]3OC(=O)C(=C)[C@@H]3CC1)=C\CC[C@@]1(C)O[C@@H]21` [JVM 3-54, bis(((1aR,7aS,10aS,10bS,E)-1a-Methyl-8-methylene-9-oxo-1a,2,3,6,7,7a,8,9,10a,10b-decahydrooxireno[2′,3′:9,10]cyclodeca[1,2-b]furan-5-yl)methyl)butane-1,4-diyldicarbamate], the “Percent Growth” value (COLO 205; Log10 Concentration −5.0) is reported as −73%, the “Percent Growth” value (COLO 205; Log10 Concentration −6.0) is reported as 25% and the “Percent Growth” value (COLO 205; Log10 Concentration −7.0) is reported as 100%. The “Percent Growth” value (COLO 205; Log10 Concentration −8.0) was 100%, the CC50 (COLO 205; read-out: LC50) was 5.79 µM and the GI50 (SK-MEL-28) was 529 nM. For the same compound, the TGI (SK-MEL-28) was 2.3 µM, the “Percent Growth” value (SK-MEL-28; Log10 Concentration −4.0) was −73% and the “Percent Growth” value (SK-MEL-28; Log10 Concentration −5.0) was −58%. For the same compound, the “Percent Growth” value (SK-MEL-28; Log10 Concentration −6.0) was 33%, the “Percent Growth” value (SK-MEL-28; Log10 Concentration −7.0) was 94% and the “Percent Growth” value (SK-MEL-28; Log10 Concentration −8.0) was 100%. The CC50 (SK-MEL-28; read-out: LC50) was 8.08 µM, the GI50 (HOP-92) was 287 nM and the TGI (HOP-92) was 1.06 µM. For the same compound, the “Percent Growth” value (HOP-92; Log10 Concentration −4.0) was −92%, the “Percent Growth” value (HOP-92; Log10 Concentration −5.0) was −76% and the “Percent Growth” value (HOP-92; Log10 Concentration −6.0) was 2%. For the same compound, the “Percent Growth” value (HOP-92; Log10 Concentration −7.0) was 91%, the “Percent Growth” value (HOP-92; Log10 Concentration −8.0) was 91% and the GI50 (KM12) was 3.18 µM. The TGI (KM12) was 10.5 µM, the “Percent Growth” value (KM12; Log10 Concentration −4.0) was −80% and the “Percent Growth” value (KM12; Log10 Concentration −5.0) was 2%. The “Percent Growth” value (KM12; Log10 Concentration −6.0) was 99%, the “Percent Growth” value (KM12; Log10 Concentration −7.0) was 100% and the “Percent Growth” value (KM12; Log10 Concentration −8.0) was 102%. The CC50 (KM12; read-out: LC50) was 43.3 µM, the GI50 (M14) was 1970 nM and the TGI (M14) was 4.82 µM. For the same compound, the “Percent Growth” value (M14; Log10 Concentration −4.0) was −84%, the “Percent Growth” value (M14; Log10 Concentration −5.0) was −41% and the “Percent Growth” value (M14; Log10 Concentration −6.0) was 88%. For the same compound, the “Percent Growth” value (M14; Log10 Concentration −7.0) was 88%, the “Percent Growth” value (M14; Log10 Concentration −8.0) was 94% and the CC50 (M14; read-out: LC50) was 16.3 µM. The GI50 (786-0) was 1990 nM, the TGI (786-0) was 4.25 µM and the “Percent Growth” value (786-0; Log10 Concentration −4.0) was −91%. The “Percent Growth” value (786-0; Log10 Concentration −5.0) was −56%, the “Percent Growth” value (786-0; Log10 Concentration −6.0) was 95% and the “Percent Growth” value (786-0; Log10 Concentration −7.0) was 91%. The “Percent Growth” value (786-0; Log10 Concentration −8.0) was 98%, the CC50 (786-0; read-out: LC50) was 9.11 µM and the GI50 (BT-549) was 1600 nM. The TGI (BT-549) was 3.63 µM, the “Percent Growth” value (BT-549; Log10 Concentration −4.0) was −98% and the “Percent Growth” value (BT-549; Log10 Concentration −5.0) was −62%. The “Percent Growth” value (BT-549; Log10 Concentration −6.0) was 79%, the “Percent Growth” value (BT-549; Log10 Concentration −7.0) was 91% and the “Percent Growth” value (BT-549; Log10 Concentration −8.0) was 100%. The GI50 (OVCAR-5) was 1750 nM, the TGI (OVCAR-5) was 3.69 µM and the “Percent Growth” value (OVCAR-5; Log10 Concentration −4.0) was −72%. For the same compound, the “Percent Growth” value (OVCAR-5; Log10 Concentration −5.0) was −67%, the “Percent Growth” value (OVCAR-5; Log10 Concentration −6.0) was 87% and the “Percent Growth” value (OVCAR-5; Log10 Concentration −7.0) was 92%. The “Percent Growth” value (OVCAR-5; Log10 Concentration −8.0) was 95%, the CC50 (OVCAR-5; read-out: LC50) was 7.79 µM and the GI50 (OVCAR-3) was 693 nM. The TGI (OVCAR-3) was 2.01 µM, the “Percent Growth” value (OVCAR-3; Log10 Concentration −4.0) was −96% and the “Percent Growth” value (OVCAR-3; Log10 Concentration −5.0) was −93%. The “Percent Growth” value (OVCAR-3; Log10 Concentration −6.0) was 40%, the “Percent Growth” value (OVCAR-3; Log10 Concentration −7.0) was 101% and the “Percent Growth” value (OVCAR-3; Log10 Concentration −8.0) was 101%. For the same compound, the CC50 (OVCAR-3; read-out: LC50) was 4.76 µM, the GI50 (OVCAR-8) was 2180 nM and the TGI (OVCAR-8) was 8.26 µM. For the same compound, the “Percent Growth” value (OVCAR-8; Log10 Concentration −4.0) was −78%, the “Percent Growth” value (OVCAR-8; Log10 Concentration −5.0) was −7% and the “Percent Growth” value (OVCAR-8; Log10 Concentration −6.0) was 79%. For the same compound, the “Percent Growth” value (OVCAR-8; Log10 Concentration −7.0) was 99%, the “Percent Growth” value (OVCAR-8; Log10 Concentration −8.0) was 99% and the CC50 (OVCAR-8; read-out: LC50) was 40.2 µM. For the same compound, the GI50 (SF-295) was 13 µM, the TGI (SF-295) was 27.4 µM and the “Percent Growth” value (SF-295; Log10 Concentration −4.0) was −87%. For the same compound, the “Percent Growth” value (SF-295; Log10 Concentration −5.0) was 68%, the “Percent Growth” value (SF-295; Log10 Concentration −6.0) was 98% and the “Percent Growth” value (SF-295; Log10 Concentration −7.0) was 89%. The “Percent Growth” value (SF-295; Log10 Concentration −8.0) was 92%, the CC50 (SF-295; read-out: LC50) was 57.7 µM and the GI50 (HCT-116) was 1120 nM. For the same compound, the TGI (HCT-116) was 2.63 µM, the “Percent Growth” value (HCT-116; Log10 Concentration −4.0) was −88% and the “Percent Growth” value (HCT-116; Log10 Concentration −5.0) was −78%. The “Percent Growth” value (HCT-116; Log10 Concentration −6.0) was 56%, the “Percent Growth” value (HCT-116; Log10 Concentration −7.0) was 85% and the “Percent Growth” value (HCT-116; Log10 Concentration −8.0) was 99%. For the same compound, the CC50 (HCT-116; read-out: LC50) was 6.19 µM.
